The source of these data is US9321742B2, “N1-cyclic amine-N5-substituted biguanide derivatives, methods of preparing the same and pharmaceutical composition comprising the same” (IMMUNOMET THERAPEUTICS INC., priority 2011, dated 2016).

Molecules are shown by their SMILES. Where a name gives a salt, the structure may show the parent alone.

One data set has as its system HCT116 cells. The data set is described as follows: Measurement of effect of inhibiting cancer cell proliferation (MTT). The format is cell-based. Particulars: Homo sapiens; for inhibition at 100 µM: HCT-116, 100 uM, 48 hours, read-out: Cell Growth Inhibition (%) at 100 uM; for GI50: HCT-116, 48 hours. The text has this:
HCT116 cells derived from human colorectal cancer (commercially available from the Korean Cell Line Bank) were used, and the effect of inhibiting cancer cell proliferation of the biguanide derivative was confirmed by measuring the concentration value (cell growth inhibition concentration, GIC50) at which cell growth was inhibited by 50% using a 3-(4,5-dimethylthiazol-2-yl)-2,5-[…] bromide (MTT) reagent.
First, HCT116 cells were put on a 96-well plate and cultured in a DMEM medium containing 10% fetal bovine serum for 16 hours so that the cellcount in each well was approximately 5,000. Subsequently, to obtain the GIC50 value of each compound, culture media were treated with 100 μM, 25 μM, 6.25 μM, 1.56 μM or 0.39 μM of the compound, and then cultured for 48 hours. At this time, some of the compounds were treated with 200 μM instead of 100 μM. Metformin hydrochloride was used as the control, and the culture media were treated with 25, 12.5, 2.5, 0.5, 0.1 mM metformin hydrochloride, and then tested in the same manner as described in the derivatives synthesized in the examples. In order to determine whether the cells survived after treatment with the compound, MTT was added to the culture media which were then cultured for another 3 hours. Formed formazane crystals were dissolved using dimethyl sulfoxide (DMSO), and the absorbance of the resulting solution was measured at 560 nm. After the 48-hours culture, the ratio of the cell count cultured on a well plate not treated with the compound to the living cell count on a well plate treated with the compounds synthesized in the examples was indicated as cell viability (%) according to each treated concentration. A cell viability curve graph was plotted and the concentration (GIC50) value of the compound at which the growth was inhibited by 50% was calculated to confirm the effect of inhibition of cancer cell proliferation. Also, the cell growth viability (%) when the concentration of the treated biguanide derivative and the metformin hydrochloride as the control were 100 uM was shown.

The subject of a further data set is AMPKα. Kind of data set: Measurement of AMPK-activation effect (AMPKα Thr172 phosphorylation immunoassay in MCF7 cells). The format is cell-based, human. Particulars: 24 hours; for AMPK activation effect 10 uM (%) / AMPK activation effect 50 uM (%): relative to untreated cells. The procedure:
MCF7 cells derived from human breast cancer cells (commercially available from the Korean Cell Line Bank) were used, and the AMPK (5′-AMP-activated protein kinase alpha)-activation effect of the biguanide derivative was confirmed using an AMPKα immunoassay kit (Invitrogen, Catalog No. KH00651).
MCF7 cells were cultured in a DMEM medium supplemented with 10% fetal bovine serum. Thereafter, the cultured MCF7 cells were put into a 6-well plate with approximately 5×10^5 cells per well and cultured in an incubator supplied with 5% CO2. Culture media were treated with the derivatives synthesized in the examples at contents of 5, 10 and 50 μM, and then cultured for 24 hours. Metformin hydrochloride was used as the control, and the culture media were treated with 0.05, 0.5, 1, 2, 5 and 10 mM metformin hydrochloride, and then tested in the same manner as described in the derivatives synthesized in the examples. Subsequently, the cells were lysed according to a method presented in the operation manual of the AMPKα immunoassay kit, and 20 μg of a cell lysate was then yielded through protein assay. Thereafter, the AMPK activation effect was obtained by determining the degree of phosphorylation of 172nd threonine residue (Thr172) of the AMPKα from the cell lysate according to the method presented in the operation manual of the AMPKα immunoassay kit. […] A curve graph showing AMPK activation according to the concentration of the treated compounds was plotted based on the obtained AMPKα activation results, the concentration (activation concentration 150, AC150) value of the compound whose AMPK activation reached 150% was calculated using a GraphPad Prism 5.0 program, and the degrees of AMPK activation were obtained when concentrations of the treated biguanide derivatives were 10 μM and 50 μM and the metformin hydrochloride was 50 μM.

In the case of `Cl.N=C(NCc1cccnc1)NC(=N)N1CCCCC1`, the melting point (in general, the temperature of the solid-liquid transition) was in the range of 197 to 199 °C.
Still for that read-out and setting: the figure for `Cl.N=C(NCc1ccccc1)NC(=N)N1CCCCC1` is 156 to 158 °C.
Compound `Cl.N=C(NCc1cccc(C(F)(F)F)c1)NC(=N)N1CCCCC1` [Example 7, N1-piperidine-N5-(3-trifluoromethyl)benzyl biguanide hydrochloride] returned a melting point of 259 to 260 °C. In the data set with HCT116 cells, the inhibition – broadly, the relative decrease from the control value, in per cent – at 100 µM amounted to 97.4% and it took 17.2 µM to inhibit growth by half (GI50). In addition, in the data set with AMPKα, the “AMPK activation effect 10 uM (%)” value is recorded as 582%, the “AMPK activation effect 50 uM (%)” value was 677% and the “AC150 (concentration at which AMPK activation reached 150%)” value worked out at 1.0 µM.
`CNC(=N)NC(=N)N1CCCCC1.Cl` [Example 8, N1-piperidine-N5-methyl biguanide hydrochloride] displayed a melting point of 211 to 212 °C. In addition, in the data set with HCT116 cells, the inhibition at 100 µM amounted to 50.5% and the 50% growth inhibitory concentration (GI50) – broadly, the concentration at which growth is held to half of that of the control – was determined as 88.6 µM. For the same compound, in the data set with AMPKα, the “AMPK activation effect 10 uM (%)” value is on record as 139%, the “AMPK activation effect 50 uM (%)” value turned out to be 500% and the “AC150 (concentration at which AMPK activation reached 150%)” value turned out to be 9.0 µM.
`CCCCNC(=N)NC(=N)N1CCCCC1.Cl` [Example 11, N1-piperidine-N5-butyl biguanide hydrochloride] yielded a melting point of 113 to 114 °C. Besides, in the data set with HCT116 cells, the inhibition at 100 µM was 42.7% and the concentration for 50% growth inhibition (GI50) was greater than 100 µM. Moreover, in the data set on AMPKα, the “AMPK activation effect 50 uM (%)” value was 130% and the “AC150 (concentration at which AMPK activation reached 150%)” value is greater than 50 µM.
The compound `Cl.N=C(NC(=N)N1CCCC1)NC1CCCC1` [Example 13, N1-pyrrolidine-N5-cyclopentyl biguanide hydrochloride] displayed a melting point of 200 to 201 °C. Further, in the data set on HCT116 cells, the inhibition at 100 µM amounted to 41.9% and the GI50 is greater than 100 µM. Also, in the data set on AMPKα, the “AMPK activation effect 10 uM (%)” value is 131%, the “AMPK activation effect 50 uM (%)” value is recorded as 375% and the “AC150 (concentration at which AMPK activation reached 150%)” value was found to be 11.9 µM.
In turn, `Cl.N=C(NC(=N)N1CCCCC1)NC1CCCC1` [Example 14, N1-piperidine-N5-cyclopentyl biguanide hydrochloride] yielded a melting point of 154 to 155 °C. In the data set with HCT116 cells, the inhibition at 100 µM worked out at 30.4% and the 50% growth inhibitory concentration (GI50) is greater than 100 µM. Further, in the data set with AMPKα, the “AMPK activation effect 10 uM (%)” value is listed as 114%, the “AMPK activation effect 50 uM (%)” value was found to be 157% and the “AC150 (concentration at which AMPK activation reached 150%)” value was 38.3 µM.
As to `Cl.N=C(NC(=N)N1CCCCCC1)NC1CCCC1` [Example 15, N1-azepane-N5-cyclopentyl biguanide hydrochloride], the melting point lay in the range of 224 to 225 °C. In the data set with HCT116 cells, the inhibition at 100 µM is 27.9% and the GI50 is greater than 100 µM. In the data set on AMPKα, the “AMPK activation effect 10 uM (%)” value is on record as 174%, the “AMPK activation effect 50 uM (%)” value was determined as 291% and the “AC150 (concentration at which AMPK activation reached 150%)” value was 7.0 µM.
`Cl.N=C(NC(=N)N1CCCCC1)NC1CCCCC1` [Example 16, N1-piperidine-N5-cyclohexyl biguanide hydrochloride] returned a melting point of 214 to 215 °C. For the same compound, in the data set with HCT116 cells, the inhibition at 100 µM is 49.1% and the GI50 was greater than 100 µM. In the data set with AMPKα, the “AMPK activation effect 10 uM (%)” value turned out to be 167%, the “AMPK activation effect 50 uM (%)” value is 486% and the “AC150 (concentration at which AMPK activation reached 150%)” value worked out at 8.0 µM.
In the case of `Cl.N=C(NC(=N)N1CCCC1)NC1CCCCCC1` [Example 17, N1-pyrrolidine-N5-cycloheptyl biguanide hydrochloride], the melting point fell in the range of 265 to 266 °C. In addition, in the data set with HCT116 cells, the inhibition at 100 µM was 60.8% and the 50% growth inhibitory concentration (GI50) amounted to 41 µM. In addition, in the data set with AMPKα, the “AMPK activation effect 10 uM (%)” value is recorded as 149%, the “AMPK activation effect 50 uM (%)” value is listed as 612% and the “AC150 (concentration at which AMPK activation reached 150%)” value stood at 7.9 µM.
In the case of `Cl.N=C(NC(=N)N1CCCCC1)NC1CCCCCC1` [Example 18, N1-piperidine-N5-cycloheptyl biguanide hydrochloride], the melting point was 237 to 238 °C. In the data set with HCT116 cells, the inhibition at 100 µM turned out to be 64.3% and halving of growth (GI50) required 23.1 µM. Also, in the data set on AMPKα, the “AMPK activation effect 10 uM (%)” value came to 304%, the “AMPK activation effect 50 uM (%)” value is given as 719% and the “AC150 (concentration at which AMPK activation reached 150%)” value worked out at 2.2 µM.
`Cl.N=C(NC(=N)N1CCCCCC1)NC1CCCCCC1` [Example 19, N1-azepane-N5-cycloheptyl biguanide hydrochloride] came in with a melting point of 237 to 238 °C. Further, in the data set on HCT116 cells, the inhibition at 100 µM came out at 94.7% and halving of growth (GI50) required 35.7 µM. Moreover, in the data set with AMPKα, the “AMPK activation effect 10 uM (%)” value was 213%, the “AMPK activation effect 50 uM (%)” value turned out to be 325% and the “AC150 (concentration at which AMPK activation reached 150%)” value worked out at 5.6 µM.
Regarding `Cl.N=C(NCc1cccnc1)NC(=N)N1CCCC1` [Example 20, N1-pyrrolidine-N5-(pyridine-3-ylmethyl)biguanide hydrochloride], the melting point was in the range of 201 to 203 °C. In the data set on HCT116 cells, the inhibition at 100 µM came out at 9.2% and the GI50 was greater than 100 µM. Also, in the data set on AMPKα, the “AMPK activation effect 10 uM (%)” value was determined as 71%, the “AMPK activation effect 50 uM (%)” value is given as 89% and the “AC150 (concentration at which AMPK activation reached 150%)” value was greater than 50 µM.
As to `Cl.N=C(NCc1ccco1)NC(=N)N1CCCC1` [Example 22, N1-pyrrolidine-N5-(furan-2-ylmethyl)biguanide hydrochloride], the melting point was 242 to 243 °C. In the data set with HCT116 cells, the inhibition at 100 µM came out at 43.9% and the GI50 is greater than 100 µM. In the data set with AMPKα, the “AMPK activation effect 10 uM (%)” value came to 101%, the “AMPK activation effect 50 uM (%)” value amounted to 293% and the “AC150 (concentration at which AMPK activation reached 150%)” value was 18.3 µM.
Regarding `Cl.N=C(NCc1cccc2ccccc12)NC(=N)N1CCCCC1` [Example 25, N1-piperidine-N5-(naphthalene-1-yl)methyl biguanide hydrochloride], in the data set on HCT116 cells, the inhibition at 100 µM came to 96.6% and growth was halved (GI50) at 28 µM. In the data set with AMPKα, the “AMPK activation effect 50 uM (%)” value is reported as 428% and the “AC150 (concentration at which AMPK activation reached 150%)” value amounted to 8.0 µM.
As for `Cl.N=C(NCc1cccc(F)c1)NC(=N)N1CCCCC1` [Example 29, N1-piperidine-N5-(3-fluoro)bezyl biguanide hydrochloride], the melting point is 171 to 172 °C. Moreover, in the data set on AMPKα, the “AMPK activation effect 50 uM (%)” value is listed as 131% and the “AC150 (concentration at which AMPK activation reached 150%)” value was greater than 50 µM.
In the case of `Cl.N=C(NCc1ccc(C(F)(F)F)cc1)NC(=N)N1CCCCC1` [Example 39, N1-piperidine-N5-(4-trifluoromethyl)benzyl biguanide hydrochloride], in the data set on HCT116 cells, the inhibition at 100 µM stood at 78.9% and it took 16.2 µM to inhibit growth by half (GI50). Besides, in the data set on AMPKα, the “AMPK activation effect 10 uM (%)” value is given as 476%, the “AMPK activation effect 50 uM (%)” value was 615% and the “AC150 (concentration at which AMPK activation reached 150%)” value was 0.9 µM.
Taken in the same sequence, the figures for `CN1CCN(C(=N)NC(=N)NCc2ccc(OC(F)(F)F)cc2)CC1.Cl` [Example 43, N1-(4-methyl)piperazine-N5-(4-trifluoromethoxy)benzyl biguanide hydrochloride] were 97.7%, greater than 100 µM, 669%, 854% and 6.4 µM.
`CN(C)C(=N)N=C(N)N` [Metformin hydrochloride, reference compound]: in the data set on HCT116 cells, the inhibition at 100 µM came to 1.8% and growth was halved (GI50) at 2850 µM. Also, in the data set with AMPKα, the “AMPK activation effect 50 uM (%)” value is on record as 130% and the “AC150 (concentration at which AMPK activation reached 150%)” value is 188.3 µM.
